Measured values reported in US20040156869A1, “2-substituted quinazolin-4-ylamine analogues” (Neurogen Corporation, priority 2002, published 2004).
pKi: −log10 of the molar value.

Target: human capsaicin receptor (VR1) (Homo sapiens, UniProt Q8NER1)
Experiment: Capsaicin receptor binding assay ([3H]RTX competition, VR1-transfected HEK293 membranes)

Sequence of human capsaicin receptor (VR1) (Q8NER1 whole entry): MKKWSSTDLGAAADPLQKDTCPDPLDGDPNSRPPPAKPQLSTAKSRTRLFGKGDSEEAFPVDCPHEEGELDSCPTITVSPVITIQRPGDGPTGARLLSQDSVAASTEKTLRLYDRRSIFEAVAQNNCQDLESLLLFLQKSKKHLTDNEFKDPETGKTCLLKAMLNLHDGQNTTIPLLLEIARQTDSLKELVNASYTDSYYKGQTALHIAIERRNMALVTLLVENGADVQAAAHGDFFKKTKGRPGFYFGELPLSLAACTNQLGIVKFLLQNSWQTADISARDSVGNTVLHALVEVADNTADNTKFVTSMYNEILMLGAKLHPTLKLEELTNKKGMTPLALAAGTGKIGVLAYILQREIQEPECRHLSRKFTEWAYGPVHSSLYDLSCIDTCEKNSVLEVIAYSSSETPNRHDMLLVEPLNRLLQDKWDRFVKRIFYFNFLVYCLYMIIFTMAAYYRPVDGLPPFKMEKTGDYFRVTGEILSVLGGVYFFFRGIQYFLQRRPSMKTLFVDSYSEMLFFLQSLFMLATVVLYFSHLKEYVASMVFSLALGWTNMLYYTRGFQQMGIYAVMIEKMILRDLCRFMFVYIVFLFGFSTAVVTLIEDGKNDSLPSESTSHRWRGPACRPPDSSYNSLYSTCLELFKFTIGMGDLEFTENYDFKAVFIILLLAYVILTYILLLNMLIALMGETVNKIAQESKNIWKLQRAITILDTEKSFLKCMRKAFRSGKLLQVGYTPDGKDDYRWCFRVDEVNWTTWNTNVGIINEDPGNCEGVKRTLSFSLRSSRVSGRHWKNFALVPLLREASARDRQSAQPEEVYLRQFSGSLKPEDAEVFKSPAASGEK

| Compound | pKi |
| --- | --- |
| CN1CCN(C(=O)c2nc(Nc3ccc(C(F)(F)F)cc3)c3ccc(-c4ncccc4C(F)(F)F)nc3n2)CC1 [Compound 472, (4-Methyl-piperazin-1-yl)-[4-(4-trifluoromethyl-phenylamino)-7-(3-trifluoromethyl-pyridin-2-yl)-pyrido[2,3-d]pyrimidin-2-yl]-methanone] | > 6.00 |
| O=C(c1nc(Nc2ccc(C(F)(F)F)cc2)c2ccc(-c3ncccc3C(F)(F)F)nc2n1)N1CCN(C2CCCC2)CC1 [Compound 473, (4-Cyclopentyl-piperazin-1-yl)-[4-(4-trifluoromethyl-phenylamino)-7-(3-trifluoromethyl-pyridin-2-yl)-pyrido[2,3-d]pyrimidin-2-yl]-methanone] | > 6.00 |
| O=C(c1nc(Nc2ccc(C(F)(F)F)cc2)c2ccc(-c3ncccc3C(F)(F)F)nc2n1)N1CCN(C2CCCCCC2)CC1 [Compound 474, (4-Cycloheptyl-piperazin-1-yl)-[4-(4-trifluoromethyl-phenylamino)-7-(3-trifluoromethyl-pyridin-2-yl)-pyrido[2,3-d]pyrimidin-2-yl]-methanone] | > 6.00 |
| CC(C)(C)c1ccc(Nc2nc(CN3CCCC3)nc3cc(-c4ncccc4C(F)(F)F)ccc23)cc1 [Compound 475, (4-tert-Butyl-phenyl)-[2-pyrrolidin-1-ylmethyl-7-(3-trifluoromethyl-pyridin-2-yl)-quinazolin-4-yl]-amine] | > 6.00 |
| CC(C)(C)c1ccc(Nc2nc(CN3CCCCC3)nc3cc(-c4ncccc4C(F)(F)F)ccc23)cc1 [Compound 476, (4-tert-Butyl-phenyl)-[2-piperidin-1-ylmethyl-7-(3-trifluoromethyl-pyridin-2-yl)-quinazolin-4-yl]-amine] | > 6.00 |
| O=C(CCc1nc(Nc2ccc(C(F)(F)F)cc2)c2ccc(-c3ncccc3C(F)(F)F)cc2n1)N1CCCC1 [Compound 478, 1-Pyrrolidin-1-yl-3-[4-(4-trifluoromethyl-phenylamino)-7-(3-trifluoromethyl-pyridin-2-yl)-quinazolin-2-yl]-propan-1-one] | > 6.00 |
| OCCC1CCN(Cc2nc(Nc3ccc(C(F)(F)F)nc3)c3ccc(-c4ncccc4C(F)(F)F)cc3n2)CC1 [Compound 481, 2-{1-[7-(3-Trifluoromethyl-pyridin-2-yl)-4-(6-trifluoromethyl-pyridin-3-ylamino)-quinazolin-2-ylmethyl]-piperidin-4-yl}-ethanol] | > 6.00 |
| OCC1CCN(Cc2nc(Nc3ccc(C(F)(F)F)nc3)c3ccc(-c4ncccc4C(F)(F)F)cc3n2)CC1 [Compound 482, {1-[7-(3-Trifluoromethyl-pyridin-2-yl)-4-(6-trifluoromethyl-pyridin-3-ylamino)-quinazolin-2-ylmethyl]-piperidin-4-yl}-methanol] | > 6.00 |
| CCOC(=O)N1CCN(Cc2nc(Nc3ccc(C(F)(F)F)nc3)c3ccc(-c4ncccc4C(F)(F)F)cc3n2)CC1 [Compound 483, 4-[7-(3-Trifluoromethyl-pyridin-2-yl)-4-(6-trifluoromethyl-pyridin-3-ylamino)-quinazolin-2-ylmethyl]-piperazine-1-carboxylic acid ethyl ester] | > 6.00 |
| OC1CCN(Cc2nc(Nc3ccc(C(F)(F)F)nc3)c3ccc(-c4ncccc4C(F)(F)F)cc3n2)CC1 [Compound 484, 1-[7-(3-Trifluoromethyl-pyridin-2-yl)-4-(6-trifluoromethyl-pyridin-3-ylamino)-quinazolin-2-ylmethyl]-piperidin-4-ol] | > 6.00 |
| CC1CCCN(Cc2nc(Nc3ccc(C(F)(F)F)nc3)c3ccc(-c4ncccc4C(F)(F)F)cc3n2)C1 (stereo not drawn) [Compound 485, [2-(3-Methyl-piperidin-1-ylmethyl)-7-(3-trifluoromethyl-pyridin-2-yl)-quinazolin-4-yl]-(6-trifluoromethyl-pyridin-3-yl)-amine] | > 6.00 |
| OC1CCCN(Cc2nc(Nc3ccc(C(F)(F)F)nc3)c3ccc(-c4ncccc4C(F)(F)F)cc3n2)C1 (stereo not drawn) [Compound 486, 1-[7-(3-Trifluoromethyl-pyridin-2-yl)-4-(6-trifluoromethyl-pyridin-3-ylamino)-quinazolin-2-ylmethyl]-piperidin-3-ol] | > 6.00 |
| NC(=O)C1CCN(Cc2nc(Nc3ccc(C(F)(F)F)nc3)c3ccc(-c4ncccc4C(F)(F)F)cc3n2)CC1 [Compound 487, 1-[7-(3-Trifluoromethyl-pyridin-2-yl)-4-(6-trifluoromethyl-pyridin-3-ylamino)-quinazolin-2-ylmethyl]-piperidine-4-carboxylic acid amide] | > 6.00 |

Second part, the compound after the results:

| pKi | Compound |
| --- | --- |
| > 6.00 | C=CCN(C)C(=O)c1nc(Nc2ccc(C(F)(F)F)cc2)c2ccc(-c3ncccc3C(F)(F)F)nc2n1 [Compound 464, 4-(4-Trifluoromethyl-phenylamino)-7-(3-trifluoromethyl-pyridin-2-yl)-pyrido[2,3-d]pyrimidine-2-carboxyiic acid allyl-methyl-amide] |
| > 6.00 | C=CCN(CC=C)C(=O)c1nc(Nc2ccc(C(F)(F)F)cc2)c2ccc(-c3ncccc3C(F)(F)F)nc2n1 [Compound 465, 4-(4-Trifluoromethyl-phenylamino)-7-(3-trifluoromethyl-pyridin-2-yl)-pyrido[2,3-d]pyrimidine-2-carboxylic acid diallylamide] |
| > 6.00 | CCCN(CCC)C(=O)c1nc(Nc2ccc(C(F)(F)F)cc2)c2ccc(-c3ncccc3C(F)(F)F)nc2n1 [Compound 466, 4-(4-Trifluoromethyl-phenylamino)-7-(3-trifluoromethyl-pyridin-2-yl)-pyrido[2,3-d]pyrimidine-2-carboxylic acid dipropylamide] |
| > 6.00 | CN(C)C(=O)c1nc(Nc2ccc(C(F)(F)F)cc2)c2ccc(-c3ncccc3C(F)(F)F)nc2n1 [Compound 467, 4-(4-Trifluoromethyl-phenylamino)-7-(3-trifluoromethyl-pyridin-2-yl)-pyrido[2,3-d]pyrimidine-2-carboxylic acid dimethylamide] |
| > 6.00 | CC1(C)CCCC(NC(=O)c2nc(Nc3ccc(C(F)(F)F)cc3)c3ccc(-c4ncccc4C(F)(F)F)nc3n2)C1 (stereo not drawn) [Compound 468, 4-(4-Trifluoromethyl-phenylamino)-7-(3-trifluoromethyl-pyridin-2-yl)-pyrido[2,3-d]pyrimidine-2-carboxylic acid (3,3-dimethyl-cyclohexyl)-amide] |
| > 6.00 | COCCN(CCOC)C(=O)c1nc(Nc2ccc(C(F)(F)F)cc2)c2ccc(-c3ncccc3C(F)(F)F)nc2n1 [Compound 469, 4-(4-Trifluoromethyl-phenylamino)-7-(3-trifluoromethyl-pyridin-2-yl)-pyrido[2,3-d]pyrimidine-2-carboxylic acid bis-(2-methoxy-ethyl)-amide] |
| > 6.00 | CC1CC(C)CC(NC(=O)c2nc(Nc3ccc(C(F)(F)F)cc3)c3ccc(-c4ncccc4C(F)(F)F)nc3n2)C1 (stereo not drawn) [Compound 470, 4-(4-Trifluoromethyl-phenylamino)-7-(3-trifluoromethyl-pyridin-2-yl)-pyrido[2,3-d]pyrimidine-2-carboxylic acid (3,5-dimethyl-cyclohexyl)-amide] |
| > 6.00 | CC(C)N1CCN(C(=O)c2nc(Nc3ccc(C(F)(F)F)cc3)c3ccc(-c4ncccc4C(F)(F)F)nc3n2)CC1 [Compound 471, (4-Isopropyl-piperazin-1-yl)-[4-(4-trifluoromethyl-phenylamino)-7-(3-trifluoromethyl-pyridin-2-yl)-pyrido[2,3-d]pyrimidin-2-yl]-methanone] |
